Reference: patent US9120812B2, “Pyrimidooxazocine derivatives as mTOR-inhibitors” (SANOFI, priority 2012, dated 2015)
Read-outs that look alike come from different tables or passages of the source.

Experiments:
PI3Kα (p110α/p85α) = PI3Kα (p110α/p85α) (Homo sapiens (Human), UniProt P42336); experiment: PI3Kα enzymatic test by measuring the consumption of ATP; format: biochemical
Summary of the method: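 ATP consumption read out by KinaseGlo luminescence after a 90 min reaction of 1.7 μg/ml PI3Kα (p110α/p85α) with 2 μM ATP and 50 μM PIP2, buffered at pH 7.5 (Tris, 10 mM MgCl2, 1 mM EGTA, 0.03% Chaps, 1 mM DTT). Threefold dilution series over ≥10 000-fold range yield IC50.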

U87MG tumour cells = experiment: Test of in vitro proliferation of U87MG tumour cells; format: cell-based; details: Homo sapiens, U-87 MG, 72 h, U87MG cells, 72 hours; read-out: U87 Cell Proliferation IC50
Procedure: Model 4: Test of in vitro Proliferation of U87MG Tumour Cells.
The cell growth is determined with the reagent CellTiter 96 AQueous One Solution Cell Proliferation Assay from Promega (Cat. No. G3581).

[1] = biological target: mTOR (human recombinant aa mTOR 1360-2549) (Homo sapiens (Human), UniProt P42345); experiment: mTOR enzymatic test by TR-FRET (phosphorylation of GFP-4EBP1); format: biochemical
Chain of mTOR (human recombinant aa mTOR 1360-2549) (P42345 1360-2549): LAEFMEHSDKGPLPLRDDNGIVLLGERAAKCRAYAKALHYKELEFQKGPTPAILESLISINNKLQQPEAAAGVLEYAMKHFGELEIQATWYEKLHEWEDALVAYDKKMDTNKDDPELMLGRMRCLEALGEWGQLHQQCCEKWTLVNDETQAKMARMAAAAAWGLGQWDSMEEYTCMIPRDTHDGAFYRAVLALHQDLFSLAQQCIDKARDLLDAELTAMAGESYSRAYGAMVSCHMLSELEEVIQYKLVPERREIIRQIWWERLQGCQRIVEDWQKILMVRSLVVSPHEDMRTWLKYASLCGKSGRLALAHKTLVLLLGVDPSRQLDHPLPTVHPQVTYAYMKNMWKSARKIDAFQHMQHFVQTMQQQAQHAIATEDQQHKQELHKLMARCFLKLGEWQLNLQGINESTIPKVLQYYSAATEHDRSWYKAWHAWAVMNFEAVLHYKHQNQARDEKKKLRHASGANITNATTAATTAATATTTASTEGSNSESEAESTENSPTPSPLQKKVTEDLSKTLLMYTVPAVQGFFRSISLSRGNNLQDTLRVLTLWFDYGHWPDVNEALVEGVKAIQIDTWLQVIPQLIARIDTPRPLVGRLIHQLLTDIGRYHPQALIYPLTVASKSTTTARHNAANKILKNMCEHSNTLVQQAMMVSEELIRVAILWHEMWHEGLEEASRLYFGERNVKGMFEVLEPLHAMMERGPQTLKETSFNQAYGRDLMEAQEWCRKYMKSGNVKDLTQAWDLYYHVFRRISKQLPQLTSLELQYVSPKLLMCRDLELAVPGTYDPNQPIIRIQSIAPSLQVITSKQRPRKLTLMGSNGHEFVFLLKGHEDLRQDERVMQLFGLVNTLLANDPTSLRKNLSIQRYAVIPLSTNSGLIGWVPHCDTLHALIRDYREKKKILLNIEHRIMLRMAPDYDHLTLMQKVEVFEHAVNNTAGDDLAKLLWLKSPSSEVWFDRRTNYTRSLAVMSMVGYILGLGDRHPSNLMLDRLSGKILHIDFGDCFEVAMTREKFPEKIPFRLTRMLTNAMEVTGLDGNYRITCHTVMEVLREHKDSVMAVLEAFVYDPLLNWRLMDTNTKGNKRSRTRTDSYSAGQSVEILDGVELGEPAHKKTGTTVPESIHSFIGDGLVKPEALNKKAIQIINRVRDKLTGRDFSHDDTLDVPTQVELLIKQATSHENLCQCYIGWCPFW
Summary of the method: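 After a 30 min room-temperature kinase reaction, EDTA (10 mM final) and Tb-labelled phospho-Thr46 antibody (2 nM final) were added and incubated 60 min. Energy transfer from Tb to phosphorylated GFP-4EBP1 was read at 340 nm excitation, emissions 490/520 nm. Values derive from the 520/490 fluorescence ratio.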

[2] = Homo sapiens, U-87 MG, read-out: U87 Akt-pS473 % Inhibition or IC50, nM (IC50), U87MG cells

Chain of PI3Kα (p110α/p85α) (P42336 whole entry): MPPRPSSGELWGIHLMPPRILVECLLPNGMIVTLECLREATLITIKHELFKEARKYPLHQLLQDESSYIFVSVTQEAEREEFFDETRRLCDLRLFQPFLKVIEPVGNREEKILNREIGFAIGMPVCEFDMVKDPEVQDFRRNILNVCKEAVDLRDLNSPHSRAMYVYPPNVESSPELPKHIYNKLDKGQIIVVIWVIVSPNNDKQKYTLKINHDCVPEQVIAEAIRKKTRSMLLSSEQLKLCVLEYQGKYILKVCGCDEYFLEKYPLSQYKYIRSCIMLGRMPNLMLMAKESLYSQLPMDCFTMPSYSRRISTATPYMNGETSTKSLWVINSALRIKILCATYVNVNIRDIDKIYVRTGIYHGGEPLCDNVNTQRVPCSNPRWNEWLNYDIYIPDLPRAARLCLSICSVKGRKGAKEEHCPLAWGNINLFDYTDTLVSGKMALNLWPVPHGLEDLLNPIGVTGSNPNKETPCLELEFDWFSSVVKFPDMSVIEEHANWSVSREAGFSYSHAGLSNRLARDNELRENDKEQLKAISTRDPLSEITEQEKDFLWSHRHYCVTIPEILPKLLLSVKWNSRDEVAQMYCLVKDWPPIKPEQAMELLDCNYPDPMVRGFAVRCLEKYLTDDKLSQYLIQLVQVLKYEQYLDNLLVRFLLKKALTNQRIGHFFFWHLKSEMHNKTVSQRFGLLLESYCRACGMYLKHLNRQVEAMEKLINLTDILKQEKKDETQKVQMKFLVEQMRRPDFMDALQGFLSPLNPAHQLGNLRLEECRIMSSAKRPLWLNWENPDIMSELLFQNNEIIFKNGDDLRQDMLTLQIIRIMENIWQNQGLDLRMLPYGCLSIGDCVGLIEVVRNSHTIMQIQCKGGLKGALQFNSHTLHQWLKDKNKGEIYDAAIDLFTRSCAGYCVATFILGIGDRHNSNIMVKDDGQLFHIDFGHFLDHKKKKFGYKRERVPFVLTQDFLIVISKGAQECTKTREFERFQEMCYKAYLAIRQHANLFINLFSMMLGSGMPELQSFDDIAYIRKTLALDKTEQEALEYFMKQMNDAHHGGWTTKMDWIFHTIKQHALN
Chain of PI3Kα (p110α/p85α) (P27986 whole entry partner): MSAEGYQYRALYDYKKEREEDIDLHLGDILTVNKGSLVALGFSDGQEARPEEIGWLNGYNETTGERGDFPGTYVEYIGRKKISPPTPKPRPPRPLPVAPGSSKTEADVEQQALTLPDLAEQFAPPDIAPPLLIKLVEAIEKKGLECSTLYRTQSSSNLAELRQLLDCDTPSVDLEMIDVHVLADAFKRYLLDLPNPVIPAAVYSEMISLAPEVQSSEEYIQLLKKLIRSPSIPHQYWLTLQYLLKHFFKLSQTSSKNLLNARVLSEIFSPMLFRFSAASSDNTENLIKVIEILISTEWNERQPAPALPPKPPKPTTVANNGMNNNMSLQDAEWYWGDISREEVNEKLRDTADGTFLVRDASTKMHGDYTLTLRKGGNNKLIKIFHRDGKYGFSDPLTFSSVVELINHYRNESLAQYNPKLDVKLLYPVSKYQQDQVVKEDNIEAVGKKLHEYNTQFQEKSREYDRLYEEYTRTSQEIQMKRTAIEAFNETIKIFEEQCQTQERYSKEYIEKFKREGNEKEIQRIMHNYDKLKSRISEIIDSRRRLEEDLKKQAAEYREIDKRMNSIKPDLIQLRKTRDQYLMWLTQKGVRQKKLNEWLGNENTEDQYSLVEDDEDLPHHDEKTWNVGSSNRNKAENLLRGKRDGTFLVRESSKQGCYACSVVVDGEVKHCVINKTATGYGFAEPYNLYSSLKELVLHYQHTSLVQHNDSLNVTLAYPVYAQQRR

Structure (SMILES) | IC50 (Akt-pS473 in U87MG cells; [2]) | PI3Ka IC50 (PI3Kα (p110α/p85α)) | IC50 (U87MG tumour cells) | IC50 [1] | inhibition at 3 µM (Akt-pS473 in U87MG cells; Homo sapiens, U-87 MG, read-out: U87 Akt-pS473 % Inhibition) | IC50 (Akt-pS473 in U87MG cells; read-out: U87 Akt-pS473 % Inhibition or IC50, nM (IC50), U87MG cells)
CCN1CC(C)(C)Oc2nc(N3CCOC[C@@H]3C)nc(-c3ccc(NC(=O)OCCO)c(F)c3)c2C1=O [Example 209, {4-[6-Ethyl-8,8-dimethyl-2-((S)-3-methylmorpholin-4-yl)-5-oxo-5,6,7,8-tetrahydro-9-oxa-1,3,6-triazabenzocyclohepten-4-yl]-2-fluorophenyl}carbamic acid 2-hydroxyethyl ester] | 69 nM | >10000 nM | 1050 nM | 155 nM | – | –
CCN1CC(C)(C)Oc2nc(N3CC4CCC(C3)O4)nc(-c3ccc(NC(=O)Nc4ccccn4)cc3F)c2C1=O [Example 84, 1-{4-[6-Ethyl-8,8-dimethyl-2-(8-oxa-3-azabicyclo[3.2.1]oct-3-yl)-5-oxo-5,6,7,8-tetrahydro-9-oxa-1,3,6-triazabenzocyclohepten-4-yl]-3-fluorophenyl}-3-pyridin-2-ylurea] | 255 nM | >10000 nM | 760 nM | 23 nM | – | –
CCN1CC(C)(C)Oc2nc(N3CCOC[C@@H]3C)nc(-c3ccc(NC(=O)NC)cc3F)c2C1=O [Example 11, 1-{4-[6-ethyl-8,8-dimethyl-2-((S)-3-methylmorpholin-4-yl)-5-oxo-5,6,7,8-tetrahydro-9-oxa-1,3,6-triazabenzocyclohepten-4-yl]-3-fluorophenyl}-3-methylurea] | 61 nM | 2300 nM | 271 nM | 13 nM | – | –
CCN1CC(C)(C)Oc2nc(N3CC4CCC(C3)O4)nc(-c3ccc(NC(=O)Nc4ccc(C)nc4)c(F)c3)c2C1=O [Example 185, 1-{4-[6-Ethyl-8,8-dimethyl-2-(8-oxa-3-azabicyclo[3.2.1]oct-3-yl)-5-oxo-5,6,7,8-tetrahydro-9-oxa-1,3,6-triazabenzocyclohepten-4-yl]-2-fluorophenyl}-3-(6-methylpyridin-3-yl)urea] | 20 nM | 5680 nM | 73 nM | 24 nM | – | –
CCNC(=O)Nc1ccc(-c2nc(N3CC4CCC(C3)O4)nc3c2C(=O)N(CCOC)CC(C)(C)O3)cc1 [Example 217, 1-Ethyl-3-{4-[6-(2-methoxyethyl)-8,8-dimethyl-2-(8-oxa-3-azabicyclo[3.2.1]oct-3-yl)-5-oxo-5,6,7,8-tetrahydro-9-oxa-1,3,6-triazabenzocyclohepten-4-yl]phenyl}urea] | – | >10000 nM | 1760 nM | 59 nM | 80% | –
CCN1CC(C)(C)Oc2nc(N3CC4CCC(C3)O4)nc(-c3ccc(NC(=O)Nc4ccc(OC)nn4)c(F)c3)c2C1=O [Example 140, 1-{4-[6-Ethyl-8,8-dimethyl-2-(8-oxa-3-azabicyclo[3.2.1]oct-3-yl)-5-oxo-5,6,7,8-tetrahydro-9-oxa-1,3,6-triazabenzocyclohepten-4-yl]-2-fluorophenyl}-3-(6-methoxypyridazin-3-yl)urea] | 507 nM | >10000 nM | 472 nM | 45 nM | – | –
CCN1CC(C)(C)Oc2nc(N3CC4CCC(C3)O4)nc(-c3ccc(NC(=O)Nc4ccc(F)c(OC)c4)c(F)c3)c2C1=O [Example 138, 1-{4-[6-Ethyl-8,8-dimethyl-2-(8-oxa-3-azabicyclo[3.2.1]oct-3-yl)-5-oxo-5,6,7,8-tetrahydro-9-oxa-1,3,6-triazabenzocyclohepten-4-yl]-2-fluorophenyl}-3-(4-fluoro-3-methoxyphenyl)urea] | 105 nM | >10000 nM | 331 nM | 299 nM | – | –
CNC(=O)Nc1ccc(-c2nc(N3CCOC[C@@H]3C)nc3c2C(=O)N(CCOC)CC(C)(C)O3)cc1F [Example 225, 1-{2-Fluoro-4-[6-(2-methoxyethyl)-8,8-dimethyl-2-((S)-3-methylmorpholin-4-yl)-5-oxo-5,6,7,8-tetrahydro-9-oxa-1,3,6-triazabenzocyclohepten-4-yl]phenyl}-3-methylurea] | 91 nM | 1360 nM | 365 nM | 36 nM | – | –
COCCN1CC(C)(C)Oc2nc(N3CCOC[C@@H]3C)nc(-c3ccc(NC(=O)Nc4cnn(C)c4)cc3)c2C1=O [Example 201, 1-{4-[6-(2-Methoxyethyl)-8,8-dimethyl-2-((S)-3-methylmorpholin-4-yl)-5-oxo-5,6,7,8-tetrahydro-9-oxa-1,3,6-triazabenzocyclohepten-4-yl]phenyl}-3-(1-methyl-1H-pyrazol-4-yl)urea] | 230 nM | 813 nM | 898 nM | 48 nM | – | –
CCN1CC(C)(C)Oc2nc(N3CC4CCC(C3)O4)nc(-c3ccc(NC(=O)Nc4ccccn4)cc3)c2C1=O [Example 33, 1-{4-[6-Ethyl-8,8-dimethyl-2-(8-oxa-3-azabicyclo[3.2.1]oct-3-yl)-5-oxo-5,6,7,8-tetrahydro-9-oxa-1,3,6-triazabenzocyclohepten-4-yl]phenyl}-3-pyridin-2-ylurea] | 42 nM | 9240 nM | 226 nM | 24 nM | – | –
CCN1CC(C)(C)Oc2nc(N3CC4CCC(C3)O4)nc(-c3ccc(NC(=O)Nc4ccc(OC)nc4)c(F)c3)c2C1=O [Example 124, 1-{4-[6-Ethyl-8,8-dimethyl-2-(8-oxa-3-azabicyclo[3.2.1]oct-3-yl)-5-oxo-5,6,7,8-tetrahydro-9-oxa-1,3,6-triazabenzocyclohepten-4-yl]-2-fluorophenyl}-3-(6-methoxypyridin-3-yl)urea] | – | >10000 nM | 115 nM | 20 nM | – | 61 nM
CCN1CC(C)(C)Oc2nc(N3CCOC[C@@H]3C)nc(-c3ccc(NC(=O)Nc4ccc(C)nc4)c(F)c3)c2C1=O [Example 161, 1-{4-[6-Ethyl-8,8-dimethyl-2-((S)-3-methylmorpholin-4-yl)-5-oxo-5,6,7,8-tetrahydro-9-oxa-1,3,6-triazabenzocyclohepten-4-yl]-2-fluorophenyl}-3-(6-methylpyridin-3-yl)urea] | 9 nM | 321 nM | 60 nM | 38 nM | – | –
CCN1CC(C)(C)Oc2nc(N3CC4CCC(C3)O4)nc(-c3ccc(NC(=O)Nc4ccc(N5CCN(C(=O)OC)CC5)cc4)c(F)c3)c2C1=O [Example 236, 4-[4-(3-{4-[6-Ethyl-8,8-dimethyl-2-(8-oxa-3-azabicyclo[3.2.1]oct-3-yl)-5-oxo-5,6,7,8-tetrahydro-9-oxa-1,3,6-triazabenzocyclohepten-4-yl]-2-fluorophenyl}ureido)phenyl]piperazine-1-carboxylic acid methyl ester] | 20 nM | >7200 nM | 29 nM | 112 nM | – | –
Cc1cc(NC(=O)Nc2ccc(-c3nc(N4CC5CCC(C4)O5)nc4c3C(=O)N(C3CCOCC3)CC(C)(C)O4)cc2)no1 [Example 15, 1-{4-[8,8-dimethyl-2-(8-oxa-3-azabicyclo[3.2.1]oct-3-yl)-5-oxo-6-(tetrahydropyran-4-yl)-5,6,7,8-tetrahydro-9-oxa-1,3,6-triazabenzocyclohepten-4-yl]phenyl}-3-(5-methylisoxazol-3-yl)urea] | 76 nM | 5300 nM | 218 nM | 12 nM | – | –
CCN1CC(C)(C)Oc2nc(N3C4CCC3COC4)nc(-c3ccc(NC(=O)Nc4cc(OC)ccn4)cc3)c2C1=O [Example 79, 1-{4-[6-Ethyl-8,8-dimethyl-2-(3-oxa-8-azabicyclo[3.2.1]oct-8-yl)-5-oxo-5,6,7,8-tetrahydro-9-oxa-1,3,6-triazabenzocyclohepten-4-yl]phenyl}-3-(4-methoxypyridin-2-yl)urea] | 41 nM | >10000 nM | 383 nM | 53 nM | – | –
COc1ccc(NC(=O)Nc2ccc(-c3nc(N4C5CCC4COC5)nc4c3C(=O)N(C)CC(C)(C)O4)cc2)nc1 [Example 49, 1-(5-Methoxypyridin-2-yl)-3-{4-[6,8,8-trimethyl-2-(3-oxa-8-azabicyclo[3.2.1]oct-8-yl)-5-oxo-5,6,7,8-tetrahydro-9-oxa-1,3,6-triazabenzocyclohepten-4-yl]phenyl}urea] | 21 nM | >10000 nM | 155 nM | 32 nM | – | –
C[C@H]1COCCN1c1nc2c(c(-c3ccc(NC(=O)Nc4ccon4)c(F)c3)n1)C(=O)N(C1CCOCC1)CC(C)(C)O2 [Example 156, 1-{4-[8,8-Dimethyl-2-((S)-3-methylmorpholin-4-yl)-5-oxo-6-(tetrahydropyran-4-yl)-5,6,7,8-tetrahydro-9-oxa-1,3,6-triazabenzocyclohepten-4-yl]-2-fluorophenyl}-3-isoxazol-3-ylurea] | 92 nM | 1140 nM | 395 nM | 27 nM | – | –
CCN1CC(C)(C)Oc2nc(N3CCOC[C@@H]3C)nc(-c3ccc(NC(=O)Nc4ccc(N5CCOCC5)nc4)c(F)c3)c2C1=O [Example 187, 1-{4-[6-Ethyl-8,8-dimethyl-2-((S)-3-methylmorpholin-4-yl)-5-oxo-5,6,7,8-tetrahydro-9-oxa-1,3,6-triazabenzocyclohepten-4-yl]-2-fluorophenyl}-3-(6-morpholin-4-ylpyridin-3-yl)urea] | 22 nM | 472 nM | 67 nM | 37 nM | – | –
